For assay [1], the target named is E3 ubiquitin-protein ligase Mdm2 (Homo sapiens, UniProt Q00987). In words: Inhibition of human full length GST-tagged MDM2 expressed in Escherichia coli TG1 after 15 mins by ELISA. On the technique in general: An ELISA detects its analyte on a solid surface through an enzyme-linked reagent.
Assay [2] deals with T1, Protein Mdm4 (Homo sapiens, UniProt O15151).
T1 sequence (O15151 whole entry): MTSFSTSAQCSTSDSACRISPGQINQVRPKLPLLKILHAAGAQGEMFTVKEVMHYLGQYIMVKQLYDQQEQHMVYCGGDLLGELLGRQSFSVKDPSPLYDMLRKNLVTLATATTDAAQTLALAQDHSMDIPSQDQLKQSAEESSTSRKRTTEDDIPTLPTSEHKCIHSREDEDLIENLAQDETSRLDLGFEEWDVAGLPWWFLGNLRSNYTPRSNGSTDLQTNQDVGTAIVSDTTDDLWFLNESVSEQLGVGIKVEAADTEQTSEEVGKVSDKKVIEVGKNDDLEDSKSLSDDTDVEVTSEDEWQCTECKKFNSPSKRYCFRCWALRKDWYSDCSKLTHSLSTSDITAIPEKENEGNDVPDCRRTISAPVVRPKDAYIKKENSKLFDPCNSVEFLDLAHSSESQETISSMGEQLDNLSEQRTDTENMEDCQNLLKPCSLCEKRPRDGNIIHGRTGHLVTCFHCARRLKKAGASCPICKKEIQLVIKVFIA
Nature of the assay: Inhibition of human full length GST-tagged MDMX expressed in Escherichia coli TG1 after 15 mins by ELISA.

Assay [3] addresses MDMX (Homo sapiens, UniProt O15151). Nature of the assay: Inhibition of human recombinant MDMX (1 to 185) after 30 mins by fluorescence polarization assay. A general note: In fluorescence polarisation assays a small probe gives low polarisation when free and higher when bound to something large.

Chain of E3 ubiquitin-protein ligase Mdm2 (Q00987 whole entry): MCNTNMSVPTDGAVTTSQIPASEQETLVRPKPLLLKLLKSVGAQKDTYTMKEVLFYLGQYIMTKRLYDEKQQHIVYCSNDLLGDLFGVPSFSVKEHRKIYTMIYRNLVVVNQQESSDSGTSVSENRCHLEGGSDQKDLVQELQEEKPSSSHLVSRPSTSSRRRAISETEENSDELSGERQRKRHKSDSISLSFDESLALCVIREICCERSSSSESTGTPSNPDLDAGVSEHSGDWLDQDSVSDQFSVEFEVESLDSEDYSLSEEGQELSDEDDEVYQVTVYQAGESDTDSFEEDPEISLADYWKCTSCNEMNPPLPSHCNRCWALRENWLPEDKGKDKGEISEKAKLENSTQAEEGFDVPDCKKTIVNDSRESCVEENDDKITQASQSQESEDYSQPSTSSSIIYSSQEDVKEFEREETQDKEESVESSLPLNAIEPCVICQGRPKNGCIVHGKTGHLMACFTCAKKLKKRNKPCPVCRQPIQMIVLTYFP

As to H-MPRFMDYWEGLN-OH, the 50% inhibitory concentration (IC50) in assay [1] worked out at 150 nM; in assay [2], 1650 nM.
On to `CCOc1cc(/C=C2\C(=O)N(c3ccccc3)N=C2C)cc(Cl)c1OCC(=O)OC`, for which, in assay [3], the 50% effective concentration (EC50) came to 840 nM.

The IC50 is the concentration at which inhibition is half-maximal. Lower therefore signals higher potency. The term EC50 denotes the concentration needed to bring the measured effect to its halfway point.

The values are drawn from ChEMBL document CHEMBL3390840, “Expanding the horizon of chemotherapeutic targets: From MDM2 to MDMX (MDM4)” (Medchemcomm, 2011).
